We go through 10 compounds from US20250270218A1, “IMIDAZ0[1,2-A]PYRIMIDINE-5(1 H)-ONES AS WRN INHIBITORS” (Incyte Corporation, priority 2023, published 2025).

Assay [1] has as its target T1, WRN (Homo sapiens, UniProt Q14191).
T1 construct: A His-tagged construct of WRN (AA S2-S1235) was produced and used for the ATPase assay; made in house; host or cells: Sf9 insect cells (baculovirus, pFastBac1)
The assay can be described thus: WRN Helicase activity assay (fluorescence DNA unwinding). The settings on record: 1-hr pre-incubation with enzyme; 25 nM forked dsDNA, 100 μM ATP, 1 nM WRN; geometric mean of at least 2 replicates. Type of assay: biochemical. On the procedure: Compounds of the examples were tested for WRN helicase activity. DNA encoding the target protein, 6×HIS-TEV-WRN-517-945, was produced, cloned, and transfected as detailed in Example D. To determine the inhibitory properties of the compounds, a 384 wells plate-based Helicase assay was set up to measure the extent of DNA unwinding (Helicase) activity of WRN. The WRN Helicase assay was designed to measure increase in fluorescence signal using a fluorescence based, donor-quencher paired forked dsDNA oligomer substrate (custom synthesis from Sigma-Aldrich) prepared by annealing equal amounts of oligo GPat-1 ([BHQ2][…]) and oligo GPat-2 ([…][TAM]). Continuous measurement of fluorescent signal was used to optimize the buffer conditions, concentration of enzyme (WRN), concentration of substrates (ATP & dsDNA), and the linearity of the Helicase reaction. All solutions were prepared in the following assay buffer: 50 mM Tris-HCl, pH-7.5, 2 mM MgCl2, 50 mM NaCl, 1 mM EGTA, 0.01% P-20, 0.05% BSA, and 2 mM DTT prepared with nuclease free water.
A serial dilution (1:3 scheme) of the compounds was prepared in neat DMSO and 100 nL of the compounds was dispensed in the Greiner black low volume (Greiner #784076) 384 wells assay plate. A 1-hr pre-incubation of the compounds with enzyme was included. A His-tagged construct of WRN (AA S2-S1235) was produced and used for the ATPase assay. Maximum inhibition control wells were set up with the addition of only assay buffer, and no inhibition control wells were set up with neat DMSO without test compounds. The reaction was initiated by addition of 5 μL substrate mix (200 μM ultrapure ATP, and 50 nM dsDNA prepared in assay buffer) and incubated at 25° C. for 35 min. A typical Helicase reaction consists of 25 nM forked dsDNA, 100 μM ATP, and 1 nM WRN prepared in assay buffer. The WRN Helicase reaction was quenched by the addition of 5 μL ‘STOP’ solution containing 100 mM EDTA (final EDTA concentration 33.33 mM) prepared in assay buffer. The plates were read on BMG PHERAstar FSX using 540/590 module to measure an increase of fluorescence. Data analysis was carried out using the Genedata software following % of control normalization. Fitting parameters include dose response IC50, Hill slope (n), maximum inhibition (S∞), and minimum inhibition (S0). The reported IC50 values for compounds in this invention are the geometric means of at least 2 independent replicates.

Assay [2] addresses T1, WRN. The assay can be described thus: WRN ATPase activity assay (ADP-Glo). Type of assay: biochemical. The settings on record: 1-hr pre-incubation with enzyme; 25 nM forked dsDNA, 100 μM ATP, 1 nM WRN; geometric mean of at least 2 replicates. On the procedure:
Compounds of the Examples were tested for WRN ATPase activity. WRN ATPase activity catalyzes ATP hydrolysis to produce ADP and phosphate. DNA encoding the target protein, 6×HIS-TEV-WRN-517-945, was produced, cloned, and transfected as detailed in Example D. The amount of ADP produced was measured using ADP-Glo™ Kinase Assay kit from Promega Corporation in a Greiner white regular volume 384 wells assay plate (Greiner #781075). Data was normalized to a standard curve generated using various ADP concentrations and the corresponding luminescent signal intensities at each concentration. The assay conditions were optimized for enzyme concentration (WRN), substrate concentrations (ATP & dsDNA), and the linearity of the ATPase reaction, in the following assay buffer: 50 mM Tris-HCl, pH-7.5, 2 mM MgCl2, 50 mM NaCl, 1 mM EGTA, 0.01% P-20, 0.05% BSA, and 2 mM DTT prepared with nuclease free water.
A serial dilution (1:3 scheme) of the compounds were prepared in neat DMSO, with 100 nL of the compounds dispensed in the 384 wells assay plate. A 1-hr pre-incubation of the compounds with enzyme was included. A His-tagged construct of WRN (AA S2-S1235) was produced and used for the ATPase assay. Maximum inhibition control wells were set up with the addition of only assay buffer, and no inhibition control wells were set up with neat DMSO without test compounds. The reaction was initiated by addition of 5 μL substrate mix (200 μM ultrapure ATP, and 50 nM dsDNA prepared in assay buffer) and incubated at 25° C. for 35 min. A forked dsDNA oligomer substrate was prepared by annealing equal amounts of oligo GPat-1 ([BHQ2][…]) and oligo GPat-2 ([…][TAM]) and was used as dsDNA substrate for WRN ATPase assay. A typical ATPase reaction consists of 25 nM forked dsDNA, 100 μM ATP, and 1 nM WRN prepared in assay buffer. The WRN ATPase reaction was stopped by the addition of 5 μL of ADP-Glo Reagent from ADP-Glo™ Kinase Assay kit and incubated for 40 min to deplete the unreacted ATP. Afterwards, 5 μL of Kinase Detection Reagent from the ADP-Glo™ Kinase Assay kit was added and incubated for 1 hr for the development of luminescence signal.
Luminesce signals were measured on BMG PHERAstar FSX using luminescence protocol. Data analysis was carried out using Genedata software following % of control normalization. Fitting parameters include dose response IC50, Hill slope (n), maximum inhibition (S∞), and minimum inhibition (S0). The reported IC50 values for compounds in this invention are the geometric means of at least 2 independent replicates.
(ADP-Glo first removes unused ATP, then detects ADP through luciferase.)

As a reminder, the IC50 is the concentration needed to halve the response being measured.

Molecules are shown by their SMILES.

T1 sequence (Q14191 2-1235): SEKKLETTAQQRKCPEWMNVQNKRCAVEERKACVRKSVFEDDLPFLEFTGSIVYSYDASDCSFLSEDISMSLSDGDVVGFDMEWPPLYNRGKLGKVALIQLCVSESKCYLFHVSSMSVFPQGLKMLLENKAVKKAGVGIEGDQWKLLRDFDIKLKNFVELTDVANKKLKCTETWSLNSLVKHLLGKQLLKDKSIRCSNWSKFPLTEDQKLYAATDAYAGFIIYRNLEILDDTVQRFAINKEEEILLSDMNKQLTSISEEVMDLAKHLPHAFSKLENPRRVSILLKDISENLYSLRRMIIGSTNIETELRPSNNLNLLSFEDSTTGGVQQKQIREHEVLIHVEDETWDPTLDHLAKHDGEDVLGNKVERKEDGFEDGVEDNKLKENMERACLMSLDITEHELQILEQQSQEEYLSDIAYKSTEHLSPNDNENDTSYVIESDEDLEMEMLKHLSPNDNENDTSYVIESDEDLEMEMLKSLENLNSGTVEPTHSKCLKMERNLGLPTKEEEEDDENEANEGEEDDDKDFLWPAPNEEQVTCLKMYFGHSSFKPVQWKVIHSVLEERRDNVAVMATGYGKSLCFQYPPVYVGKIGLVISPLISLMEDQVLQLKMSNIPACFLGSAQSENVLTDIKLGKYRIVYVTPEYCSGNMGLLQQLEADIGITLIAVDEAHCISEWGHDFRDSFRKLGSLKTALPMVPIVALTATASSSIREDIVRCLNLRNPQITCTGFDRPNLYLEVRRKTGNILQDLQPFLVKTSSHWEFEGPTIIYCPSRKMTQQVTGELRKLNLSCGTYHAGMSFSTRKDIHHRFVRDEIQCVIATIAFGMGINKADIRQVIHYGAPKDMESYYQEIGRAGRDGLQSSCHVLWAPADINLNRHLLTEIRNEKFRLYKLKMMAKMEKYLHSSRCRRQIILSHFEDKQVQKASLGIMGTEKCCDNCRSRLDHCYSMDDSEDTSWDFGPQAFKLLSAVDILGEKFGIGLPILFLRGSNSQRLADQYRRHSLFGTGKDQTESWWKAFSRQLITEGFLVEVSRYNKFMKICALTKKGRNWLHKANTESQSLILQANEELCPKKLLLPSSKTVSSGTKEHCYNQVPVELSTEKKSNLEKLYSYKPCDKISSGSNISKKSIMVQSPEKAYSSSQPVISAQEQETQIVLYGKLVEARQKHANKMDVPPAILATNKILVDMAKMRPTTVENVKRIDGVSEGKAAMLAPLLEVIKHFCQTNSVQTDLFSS

Take `C=CC(=O)Nc1ccccc1-c1c(CC)n(CC(=O)Nc2ccc(C(F)(F)F)cc2)c2nc(C)c(C)n2c1=O` [Example 1, N-(2-(7-ethyl-2,3-dimethyl-5-oxo-8-(2-oxo-2-((4-(trifluoromethyl)phenyl)amino)ethyl)-5,8-dihydroimidazo[1,2-a]pyrimidin-6-yl)phenyl)acrylamide]: the IC50 on WRN [1] and on WRN [2] was 100 to 500 nM throughout.
In the case of `C=CC(=O)Nc1ccccc1-c1c(CC)n(CC(=O)Nc2ccc(C(F)(F)F)cc2)c2nc(-c3ccccc3)cn2c1=O` [Example 2, N-(2-(7-Ethyl-5-oxo-8-(2-oxo-2-((4-(trifluoromethyl)phenyl)amino)ethyl)-2-phenyl-5,8-dihydroimidazo[1,2-a]pyrimidin-6-yl)phenyl)acrylamide], the 50% inhibitory concentration (IC50) against WRN [1] and at WRN [2] was 100 to 500 nM each time.
For the compound `C=CC(=O)Nc1ccccc1-c1c(CC)n(CC(=O)Nc2ccc(F)cc2)c2nc(C)c(C)n2c1=O` [Example 3, N-(2-(7-Ethyl-8-(2-((4-fluorophenyl)amino)-2-oxoethyl)-2,3-dimethyl-5-oxo-5,8-dihydroimidazo[1,2-a]pyrimidin-6-yl)phenyl)acrylamide], the IC50 against WRN [1] and at WRN [2] was below 100 nM each time.
`C=CC(=O)Nc1ccccc1-c1c(CC)n(CC(=O)Nc2ccc(F)cc2Cl)c2nc(C)c(C)n2c1=O` [Example 4, N-(2-(8-(2-((2-chloro-4-fluorophenyl)amino)-2-oxoethyl)-7-ethyl-2,3-dimethyl-5-oxo-5,8-dihydroimidazo[1,2-a]pyrimidin-6-yl)phenyl)acrylamide]: the IC50 on WRN [1] and on WRN [2] was 100 to 500 nM each time.
For the compound `C=CC(=O)Nc1ccccc1-c1c(CC)n(CC(=O)Nc2ccc(C(F)(F)F)cc2)c2nc(C)c(-c3ccccc3)n2c1=O` [Example 5, N-(2-(7-ethyl-2-methyl-5-oxo-8-(2-oxo-2-((4-(trifluoromethyl)phenyl)amino)ethyl)-3-phenyl-5,8-dihydroimidazo[1,2-a]pyrimidin-6-yl)phenyl)acrylamide], the IC50 at WRN [1] and against WRN [2] was 100 to 500 nM throughout.
On to `C=CC(=O)Nc1ccccc1-c1c(C)nc2n(CC(=O)Nc3ccc(F)cc3)c(CC)c(-c3ccccc3)c(=O)n12` [Example 6, N-(2-(7-Ethyl-8-(2-((4-fluorophenyl)amino)-2-oxoethyl)-2-methyl-5-oxo-6-phenyl-5,8-dihydroimidazo[1,2-a]pyrimidin-3-yl)phenyl)acrylamide], for which the IC50 on WRN [1] and at WRN [2] was 100 to 500 nM in each case.
Turning to `C=CS(=O)(=O)Nc1ccccc1-c1c(C)nc2n(CC(=O)Nc3ccc(F)cc3)c(CC)c(-c3ccccc3)c(=O)n12` [Example 7, 2-(7-Ethyl-2-methyl-5-oxo-6-phenyl-3-(2-(vinylsulfonamido)phenyl)imidazo[1,2-a]pyrimidin-8(5H)-yl)-N-(4-fluorophenyl)acetamide], the IC50 against WRN [1] and against WRN [2] was below 100 nM throughout.
As for `C=CC(=O)Nc1ccccc1-c1c(C)nc2n(CC(=O)Nc3ccc(C(F)(F)F)cc3)c(CC)c(C)c(=O)n12` [Example 8, N-(2-(7-Ethyl-2,6-dimethyl-5-oxo-8-(2-oxo-2-((4-(trifluoromethyl)phenyl)amino)ethyl)-5,8-dihydroimidazo[1,2-a]pyrimidin-3-yl)phenyl)acrylamide], the IC50 against WRN [1] and on WRN [2] was below 100 nM each time.
Regarding `C=CC(=O)Nc1ccccc1-c1c(C)nc2n(CC(=O)Nc3ccc(C(F)(F)F)cc3)c(CC)c(-c3ccc(C(=O)NCC)cc3)c(=O)n12` [Example 9, 4-(3-(2-Acrylamidophenyl)-7-ethyl-2-methyl-5-oxo-8-(2-oxo-2-((4-(trifluoromethyl)phenyl)amino)ethyl)-5,8-dihydroimidazo[1,2-a]pyrimidin-6-yl)-N-ethylbenzamide], the IC50 against WRN [1] and at WRN [2] was below 100 nM each time.
With `C=CC(=O)Nc1ccccc1-c1c(C)nc2n(CC(=O)Nc3ccc(C(F)(F)F)cc3)c(CC)c(-c3ccc(C(=O)NC)nc3)c(=O)n12` [Example 10, 5-(3-(2-Acrylamidophenyl)-7-ethyl-2-methyl-5-oxo-8-(2-oxo-2-((4-(trifluoromethyl)phenyl)amino)ethyl)-5,8-dihydroimidazo[1,2-a]pyrimidin-6-yl)-N-methylpicolinamide], the IC50 at WRN [1] and on WRN [2] was below 100 nM each time.
